In PubChem BioAssay AID1963446 (Molecular Pharmacology Branch, DTP, NCI, 2024):
Several values for one entry are separate records, joined by “and”; a condition that tells them apart may be missing. Equal values may be shown once. Each block holds one molecule with its values, some of them ahead of it.

Tested on: 993429-296-R-J1-PDC complex spheroid growth, percent test/control
Assay: Anticancer human tumor 993429-296-R-J1-PDC patient-derived uterine sarcoma cell line growth inhibition [Asc]
Conditions: for viability, T/C: stronger effect = lower value
Summary of the method: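 Tumor cells were grown as multicellular spheroids with stromal HUVEC and mesenchymal stem cells and treated singly or in combination. Concentrations fell in half-log steps from the clinical Cmax, or from 10 microM where none was known.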

[1] = curve of first compound, second compound 0.1 µM
[2] = curve of first compound, second compound 0.316 µM
[3] = curve of first compound, second compound 1 µM
[4] = second compound 0.1 µM, first compound 0.00316 µM
[5] = second compound 0.1 µM, first compound 0.01 µM
[6] = second compound 0.1 µM, first compound 0.0316 µM
[7] = second compound 0.1 µM, first compound 0.1 µM
[8] = second compound 0.1 µM, first compound 0.316 µM
[9] = second compound 0.1 µM, first compound 1 µM
[10] = second compound 0.316 µM, first compound 0.00316 µM
[11] = second compound 0.316 µM, first compound 0.01 µM
[12] = second compound 0.316 µM, first compound 0.0316 µM
[13] = second compound 0.316 µM, first compound 0.1 µM
[14] = second compound 0.316 µM, first compound 0.316 µM
[15] = second compound 0.316 µM, first compound 1 µM
[16] = second compound 1 µM, first compound 0.00316 µM
[17] = second compound 1 µM, first compound 0.01 µM
[18] = second compound 1 µM, first compound 0.0316 µM
[19] = second compound 1 µM, first compound 0.1 µM
[20] = second compound 1 µM, first compound 0.316 µM
[21] = second compound 1 µM, first compound 1 µM
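Also: spheroids exposed to compounds for seven days.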

IC50 (curve of first compound, second compound 0.03 µM): > 100 nM
IC50 (curve of first compound, second compound 0.0949 µM): 75.8 nM
IC50 (curve of first compound, second compound 0.3 µM): 65.3 nM
IC50 (curve of first compound, second compound 0.949 µM): > 100 nM
IC50 (curve of first compound, second compound 3 µM): 66.2 nM
Compound: Cn1ncnc1[C@H]1c2n[nH]c(=O)c3cc(F)cc(c23)N[C@@H]1c1ccc(F)cc1 + CCN1C(C(=O)NC23CCC(C(=O)O)(CC2)CC3)C(c2cccc(Cl)c2F)C2(C(=O)Nc3cc(Cl)ccc32)C12CCCCC2
viability, T/C (second compound 0.03 µM, first compound 0.000316 µM): 114%
viability, T/C (second compound 0.03 µM, first compound 0.001 µM): 107%
viability, T/C (second compound 0.03 µM, first compound 0.00316 µM): 104%
viability, T/C (second compound 0.03 µM, first compound 0.01 µM): 62%
viability, T/C (second compound 0.03 µM, first compound 0.0316 µM): 62%
viability, T/C (second compound 0.03 µM, first compound 0.1 µM): 45.1%
viability, T/C (second compound 0.0949 µM, first compound 0.000316 µM): 94%
viability, T/C (second compound 0.0949 µM, first compound 0.001 µM): 102%
viability, T/C (second compound 0.0949 µM, first compound 0.00316 µM): 89.4%
viability, T/C (second compound 0.0949 µM, first compound 0.01 µM): 73.6%
viability, T/C (second compound 0.0949 µM, first compound 0.0316 µM): 64.6%
viability, T/C (second compound 0.0949 µM, first compound 0.1 µM): 45.4%
viability, T/C (second compound 0.3 µM, first compound 0.000316 µM): 96.5%
viability, T/C (second compound 0.3 µM, first compound 0.001 µM): 104%
viability, T/C (second compound 0.3 µM, first compound 0.00316 µM): 90.6%
viability, T/C (second compound 0.3 µM, first compound 0.01 µM): 77.3%
viability, T/C (second compound 0.3 µM, first compound 0.0316 µM): 66%
viability, T/C (second compound 0.3 µM, first compound 0.1 µM): 41.4%
viability, T/C (second compound 0.949 µM, first compound 0.000316 µM): 109%
viability, T/C (second compound 0.949 µM, first compound 0.001 µM): 101%
viability, T/C (second compound 0.949 µM, first compound 0.00316 µM): 92.3%
viability, T/C (second compound 0.949 µM, first compound 0.01 µM): 65.1%
viability, T/C (second compound 0.949 µM, first compound 0.0316 µM): 59.9%
viability, T/C (second compound 0.949 µM, first compound 0.1 µM): 48%
viability, T/C (second compound 3 µM, first compound 0.000316 µM): 91.5%
viability, T/C (second compound 3 µM, first compound 0.001 µM): 91.8%
viability, T/C (second compound 3 µM, first compound 0.00316 µM): 82.8%
viability, T/C (second compound 3 µM, first compound 0.01 µM): 72.5%
viability, T/C (second compound 3 µM, first compound 0.0316 µM): 61.5%
viability, T/C (second compound 3 µM, first compound 0.1 µM): 43.9%

IC50 [1]: 12.6 nM
IC50 [2]: 11.6 nM
IC50 [3]: 4.23 nM
IC50 (curve of first compound, second compound 3.16 µM): < 3.16 nM
IC50 (curve of first compound, second compound 10 µM): 10.1 nM
Compound: COc1c(OCCCN2CCOCC2)ccc2c3n(c(=NC(=O)c4cnc(N)nc4)nc12)CCN3 + Cc1c(S(C)(=O)=O)c(-c2cc(F)cc(N3CCN(c4ccc(NS(=O)(=O)c5ccc(NC(CCN6CCC(C(=O)OCCCP(=O)(O)O)CC6)CSc6ccccc6)c(S(=O)(=O)C(F)(F)F)c5)cc4)CC3)c2)c(-c2ccc(Cl)cc2)n1C(C)C
viability, T/C [4]: 76.5%
viability, T/C [5]: 54.1%
viability, T/C [6]: 29.3%
viability, T/C [7]: 3.96%
viability, T/C [8]: 1.63%
viability, T/C [9]: 0.23%
viability, T/C [10]: 71.7%
viability, T/C [11]: 54%
viability, T/C [12]: 22.2%
viability, T/C [13]: 3.44%
viability, T/C [14]: 0.88%
viability, T/C [15]: 0.17%
viability, T/C [16]: 54.2%
viability, T/C [17]: 37.9%
viability, T/C [18]: 23.3%
viability, T/C [19]: 3.11%
viability, T/C [20]: 0.68%
viability, T/C [21]: 0.31%
viability, T/C (second compound 3.16 µM, first compound 0.00316 µM): 35.8%
viability, T/C (second compound 3.16 µM, first compound 0.01 µM): 33.7%
viability, T/C (second compound 3.16 µM, first compound 0.0316 µM): 14.8%
viability, T/C (second compound 3.16 µM, first compound 0.1 µM): 2.35%
viability, T/C (second compound 3.16 µM, first compound 0.316 µM): 0.33%
viability, T/C (second compound 3.16 µM, first compound 1 µM): 0.18%
viability, T/C (second compound 10 µM, first compound 0.00316 µM): 79.3%
viability, T/C (second compound 10 µM, first compound 0.01 µM): 49.4%
viability, T/C (second compound 10 µM, first compound 0.0316 µM): 20.7%
viability, T/C (second compound 10 µM, first compound 0.1 µM): 1.24%
viability, T/C (second compound 10 µM, first compound 0.316 µM): 0.28%
viability, T/C (second compound 10 µM, first compound 1 µM): 0.25%

IC50 (curve of first compound, second compound 0.01 µM): 56.5 nM
IC50 (curve of first compound, second compound 0.0316 µM): 30.9 nM
IC50 [1]: 27.2 nM
IC50 [2]: < 3.16 nM
IC50 [3]: 11.4 nM
Compound: O=C(c1ccc(F)c(F)c1Nc1ccc(I)cc1F)N1CC(O)([C@@H]2CCCCN2)C1 + CNC(C)C(=O)NC1CN(S(=O)(=O)c2cccc(S(=O)(=O)N3CCC4CCC(C(=O)NC(c5ccccc5)c5ccccc5)N4C(=O)C(NC(=O)C(C)NC)C3)c2)CCC2CCC(C(=O)NC(c3ccccc3)c3ccccc3)N2C1=O
viability, T/C (second compound 0.01 µM, first compound 0.00316 µM): 65.5%
viability, T/C (second compound 0.01 µM, first compound 0.01 µM): 64.5%
viability, T/C (second compound 0.01 µM, first compound 0.0316 µM): 50.4%
viability, T/C (second compound 0.01 µM, first compound 0.1 µM): 48.9%
viability, T/C (second compound 0.01 µM, first compound 0.316 µM): 25.3%
viability, T/C (second compound 0.01 µM, first compound 1 µM): 1.67%
viability, T/C (second compound 0.0316 µM, first compound 0.00316 µM): 61.7%
viability, T/C (second compound 0.0316 µM, first compound 0.01 µM): 51.2%
viability, T/C (second compound 0.0316 µM, first compound 0.0316 µM): 55.2%
viability, T/C (second compound 0.0316 µM, first compound 0.1 µM): 33.4%
viability, T/C (second compound 0.0316 µM, first compound 0.316 µM): 19.1%
viability, T/C (second compound 0.0316 µM, first compound 1 µM): 1.07%
viability, T/C [4]: 56.4%
viability, T/C [5]: 57.5%
viability, T/C [6]: 50.7%
viability, T/C [7]: 29.6%
viability, T/C [8]: 14.9%
viability, T/C [9]: 1.5%
viability, T/C [10]: 48.3%
viability, T/C [11]: 45.4%
viability, T/C [12]: 50.7%
viability, T/C [13]: 34.1%
viability, T/C [14]: 11%
viability, T/C [15]: 0.99%
viability, T/C [16]: 54.8%
viability, T/C [17]: 48.4%
viability, T/C [18]: 43.6%
viability, T/C [19]: 38.5%
viability, T/C [20]: 12.7%
viability, T/C [21]: 0.99%

IC50 (curve of compound): > 1000 nM
Compound: CNC(C)C(=O)NC1CN(S(=O)(=O)c2cccc(S(=O)(=O)N3CCC4CCC(C(=O)NC(c5ccccc5)c5ccccc5)N4C(=O)C(NC(=O)C(C)NC)C3)c2)CCC2CCC(C(=O)NC(c3ccccc3)c3ccccc3)N2C1=O (stereo unspecified)
viability, T/C (compound 0.00316 µM): 80% and 76.5%
viability, T/C (compound 0.01 µM): 68.6% [middle of 15 runs]
viability, T/C (compound 0.0316 µM): 62.4% [middle of 15 runs]
viability, T/C (compound 0.1 µM): 55.9% [middle of 15 runs]
viability, T/C (compound 1 µM): 50.4% [middle of 15 runs]
